Laboratory results taken from US20250152556A1, “ETRASIMOD FOR USE IN TREATING S1P1 RECEPTOR-ASSOCIATED DISORDERS IN COMBINATION WITH HORMONE TREATMENT” (Arena Pharmaceuticals, Inc., priority 2022, published 2025).

Legend:
[1] = design: species or system human; conditions: in vivo
Description: A phase 1, open-label, repeat-dose, two-way, single-sequence study was conducted to evaluate the effect of Compound 1, or a pharmaceutically acceptable salt, hydrate, or solvate thereof, (“Study Drug”) on the pharmacokinetics and pharmacodynamics of a monophasic oral contraceptive (OC) in healthy premenopausal female subjects.
The primary objective of the study was to evaluate the pharmacokinetics (PK) of a monophasic OC (30 μg ethinylestradiol [EE] and 150 μg levonorgestrel [LVG]) alone and when co-administered with repeated doses of Study Drug in healthy premenopausal female subjects.
All subjects received monophasic OC once daily (qd) for 21 days (Days 1 to 21; reference treatment) followed by a 7-day OC dose-free period (Days 22 to 28). […]
Blood samples for plasma PK evaluation of EE, LVG, and Study Drug were collected. The following PK parameters were determined for EE, LVG, and/or Study Drug and, if warranted, metabolites thereof. • Cmax,ss maximum plasma concentration at steady-state • Cmin,ss plasma concentration at 24-hours postdose at steady-state • Tmax,ss time to Cmax at steady-state • AUCtau,ss area under the plasma concentration-time curve (AUC) during the dosing interval (tau) at steady-state • CLSS/F Apparent plasma clearance of drug after extravascular administration at steady-state

[2] = cited from earlier work
[3] = system: ovarian activity; test: Phase 1 study: PD markers of ovarian activity (FSH, LH, estradiol, progesterone, SHBG, TVUS/Hoogland score); type: in vivo, human; conditions: Study Drug 2 mg qd with OC
Excerpt: (§1) Secondary objectives of the study were: • To assess the concentrations of follicle stimulating hormone (FSH), luteinizing hormone (LH), estradiol, and progesterone during and after dosing with the monophasic OC alone and when co-administered with Study Drug in healthy premenopausal female subjects. • To evaluate transvaginal ultrasound (TVUS) and Hoogland scores on Days 1 and 11±1 in Period 1 and Period 2 in healthy premenopausal female subjects. • To evaluate sex hormone binding globulin (SHBG) concentrations on Days 1 and 21 in Period 1 and Period 2 in healthy premenopausal female subjects. • To evaluate the steady-state PK of Study Drug when co-administered with the monophasic OC in healthy premenopausal female subjects. • To assess complete blood count (CBC) including differential, absolute lymphocyte count lowering from baseline, and platelet count upon administration of monophasic OC alone and when co-administered with Study Drug in healthy premenopausal female subjects. • To evaluate the safety and tolerability of Study Drug when co-administered with the monophasic OC in healthy premenopausal female subjects.
On Day 1, baseline CBC, FSH, LH, estradiol, progesterone, TVUS, and SHBG were obtained, and then subjects received OC dosing. The TVUS were performed on Day −1 or Day 1. The OC PK was done on Days 21 to 22. […]

[4] = system: lymphocyte counts; test: Phase 1 study: lymphocyte counts (CBC); type: in vivo, human
Excerpt: as §1
Subjects were administered 2 mg Study Drug, specifically, the L-arginine salt of Compound 1, i.e., Compound 2, qd on Days 23 to 28. […]

[5] = Phase 1 study: safety and tolerability (AEs, 12-lead ECG, Holter, laboratory, vital signs); type: in vivo, human
Description: Subjects were administered 2 mg Study Drug, specifically, the L-arginine salt of Compound 1, i.e., Compound 2, qd on Days 23 to 28. Subjects were fitted with a Holter monitor and 24-hour continuous electrocardiogram (ECG) recording was performed starting before the Study Drug dose on Day 23 of Period 1 until Day 24 of Period 1.
All subjects were co-administered Study Drug 2 mg qd with OC for 21 days (Days 29 to 49; test treatment), followed by a 7-day dose-free period (Days 50 to 56). On Days 49 to 50, subjects underwent assessments for PK of Study Drug and OC. Further PD assessments and safety evaluations were performed as described in the schedules of assessments and procedures. Subjects were fitted with a Holter monitor and 24-hour continuous ECG recording was performed starting before the Study Drug dose on Day 49 of Period 2 until Day 50 of Period 2.
Subject safety and tolerability were monitored during the study using standard measures, including adverse event (AE) monitoring, orthostatic vital signs, 12-lead ECGs, continuous ECG recordings (Holter), clinical laboratory evaluations, physical examinations, and concomitant medication usage.
• Evaluations of AEs, orthostatic vital signs, 12-lead ECGs, continuous ECG recording (Holter), clinical laboratory evaluations, physical examinations, concomitant medications

[6] = Phase 1 study: steady-state PK of Study Drug co-administered with OC; type: in vivo, human; conditions: Day 49, Period 2, Study Drug 2 mg qd + OC; compared with Study Drug given alone in previous studies
Excerpt: as §1
All subjects were co-administered Study Drug 2 mg qd with OC for 21 days (Days 29 to 49; test treatment), followed by a 7-day dose-free period (Days 50 to 56). On Days 49 to 50, subjects underwent assessments for PK of Study Drug and OC. […]

[7] = after the first dose (Day 23), 2 mg
[8] = repeat dosing at steady-state (Day 49), 2 mg qd

## C#C[C@]1(O)CC[C@H]2[C@@H]3CCc4cc(O)ccc4[C@H]3CC[C@@]21C [Ethinylestradiol (EE), ethinylestradiol]
[1]
  change in peak (Cmax,ss) and total (AUCtau,ss) exposure measures when OC coadministered with ETR vs OC alone: minor-to-moderate increases

## O=C(O)C[C@H]1CCc2c1[nH]c1ccc(OCc3ccc(C4CCCC4)c(C(F)(F)F)c3)cc21 [Compound 1, (R)-2-(7-(4-cyclopentyl-3-(trifluoromethyl)benzyloxy)-1,2,3,4-tetrahydrocyclopenta[b]indol-3-yl)acetic acid]
[2]; Phase 2, ulcerative colitis patients, 2 mg QD for 12 weeks
  endoscopic and symptomatic improvements versus placebo: clinically meaningful and statistically significant
[2]; approximately 281 adult subjects, various doses, Phase 1 single doses up to 5 mg, repeated up to 4 mg QD
  safety and tolerability in adult subjects: safe and well-tolerated
[2]; open-label extension study
  duration of sustained beneficial effects: up to 46 weeks

## N=C(N)NCCC[C@H](N)C(=O)O.O=C(O)C[C@H]1CCc2c1[nH]c1ccc(OCc3ccc(C4CCCC4)c(C(F)(F)F)c3)cc21 [Compound 2, 1:1 salt of (R)-2-(7-(4-cyclopentyl-3-(trifluoromethyl)benzyloxy)-1,2,3,4-tetrahydrocyclopenta[b]indol-3-yl)acetic acid with L-arginine]
[3]
  impact of Study Drug on PD performance of the OC (FSH, LH, estradiol, progesterone, SHBG, TVUS/Hoogland score): no apparent clinically relevant impact
[4]; Day 56, 7 days after discontinuation of study treatment
  mean lymphocyte counts relative to mean baseline (Day 23) after discontinuation: 94%
[4]; Period 2, Study Drug 2 mg qd + OC, Day 49
  mean lymphocyte count reduction from mean baseline (Day 23): −56.7%
[5]; Days 23 or 49
  clinically significant abnormalities of 12-lead ECG parameters including PR interval and QT interval: No subject had an ECG with clinically significant abnormalities
[5]; [7]
  HR lowering effects, continuous Holter ECG recording: typically mild
  HR lowering effects, safety 12-lead ECG: typically mild
[5]; conclusion, coadministration with OC
  safety or tolerability events of concern: No safety or tolerability events of concern
[5]; [8]
  HR lowering effects, continuous Holter ECG recording: less impacted
  HR lowering effects, safety 12-lead ECG: less impacted
[6]
  Study Drug steady-state plasma exposure measures (Cmax,ss, Cmin,ss, AUCtau,ss): generally consistent with previous study findings

## C#C[C@]1(O)CC[C@H]2[C@@H]3CCC4=CC(=O)CC[C@@H]4[C@H]3CC[C@@]21CC [Levonorgestrel (LVG), levonorgestrel]
[1]
  change in peak (Cmax,ss) and total (AUCtau,ss) exposure measures when OC coadministered with ETR vs OC alone: minor-to-moderate increases
